Where two headings read alike, the source gives them in different places.
How the values were obtained:
[1] = test system: adult emergency department (ED) patients with acute musculoskeletal pain; experiment: Reduction of acute musculoskeletal pain (NRS) in adult ED patients, trial of Example 1/5; details: NRS 0-10, 60 minutes post medication; doses of Table 1 (dual route ketamine 0.5 mg/kg + aspirin 325 mg; IV ketamine 0.3 mg/kg; IV morphine 0.1 mg/kg; MSIR 15 mg; Percocet 10 mg); comparators from similar trials, same center and protocol; FIG. 1
[2] = cited from earlier work
[3] = cited from earlier work; remark: listed apart in the source

**Q.** Which “Reduction of acute musculoskeletal pain” value [1] does the source give for `CN1CC[C@]23c4c5ccc(O)c4O[C@H]2[C@@H](O)C=C[C@H]3[C@H]1C5` [IV morphine, Morphine] here?
**A.** 5.1 points

**Q.** For `CNC1(c2ccccc2Cl)CCCCC1=O` (stereo not drawn) [intranasal (nebulized) ketamine, ketamine], which “Reduction of acute musculoskeletal pain” value [1] is on record?
**A.** about 4 points

**Q.** Which results are given for `CNC1(c2ccccc2Cl)CCCCC1=O` (stereo not drawn) [ketamine]?
**A.** Bioavailability ([2]; IV): about 100%; Elimination half-life ([2]; in vivo): 2 to 3 h; Bioavailability ([2]; intramuscular injection): about 93%; Delay of serum peak concentration, GI absorption versus direct (oral mucosal) absorption ([2]; ketamine given concurrently through the GI, patent's own reasoning, no PK data shown): 15 to 20 min; Bioavailability ([2]; oral route): 18-20%; Time at which maximal concentrations are reached ([2]; orally): 30 min

**Q.** Which “Plasma levels of the metabolite relative to ketamine” value ([2]; following oral administration of ketamine) does the source give for `NC1(c2ccccc2Cl)CCCCC1=O` (stereo not drawn) [norketamine] here?
**A.** three times higher

**Q.** Which “Reduction of acute musculoskeletal pain” value [1] does the source give for `CC(C)Cc1ccc(C(C)C(=O)O)cc1` (stereo not drawn) [oral ibuprofen, Ibuprofen] here?
**A.** 2 points

**Q.** With `CN1CC[C@]23c4c5ccc(O)c4O[C@H]2[C@@H](O)C=C[C@H]3[C@H]1C5.O=S(=O)(O)O` [oral morphine, Morphine Sulfate] as the compound, how does the “Reduction of acute musculoskeletal pain” value [1] read?
**A.** about 4 points

**Q.** For `N[C@@H]1c2cccnc2[C@H](OC(=O)N2CCC(n3c(=O)[nH]c4ncccc43)CC2)CC[C@H]1c1cccc(F)c1F` [rimegepant, Rimegepant], which Absolute oral bioavailability ([3]; in vivo, po) is on record?
**A.** approximately 64%

**Q.** And the “Eliminated in unchanged form” value ([3]; in vivo)?
**A.** ~77 % of the dose

**Q.** What about the “Major metabolites (i.e., >10%) detected in plasma” value ([3]; in vivo) of the same compound?
**A.** no major metabolites

**Q.** What about the “Time of maximum concentration” value ([3]; oral administration of NURTEC Orally Disintegrating Tablet) of the same compound?
**A.** 1.5 h

— patent publication US11382873B1, “Oral administration of ketamine” (Vitalis Analgesics LLC, priority 2021, dated 2022)
